Results on one cell line are retold here after the supplement of paper PMC10307832.

Holding throughout (experiment): relative viability (nuclei count vs DMSO), 5 days (fraction); higher = more cells survive
Compound in the test “Ispinesib + Phenformin”: Cc1ccc(C(=O)N(CCCN)[C@@H](c2nc3cc(Cl)ccc3c(=O)n2Cc2ccccc2)C(C)C)cc1 [Ispinesib] + N=C(N)NC(=N)NCCc1ccccc1 [Phenformin] (partner 250 µM)
In outline: (§1)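 Relative viability equals treated-well nuclei counts divided by vehicle-well nuclei counts. Counts came from 4× images of lung cancer cell lines grown in 1536-well plates for 5 days after pin-tool dosing on the day after seeding. Dosing used one drug alone or a fixed anchor-drug dose plus five library-drug doses (not always all listed) in √10 steps, and values are medians of duplicate plates.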

Compound in the test “Ispinesib + Dasatinib”: Cc1ccc(C(=O)N(CCCN)[C@@H](c2nc3cc(Cl)ccc3c(=O)n2Cc2ccccc2)C(C)C)cc1 [Ispinesib] + Cc1nc(Nc2ncc(C(=O)Nc3c(C)cccc3Cl)s2)cc(N2CCN(CCO)CC2)n1 [Dasatinib] (partner 0.075 µM)
In outline: as §1

Compound in the test “Linsitinib + Pictilisib”: C[C@]1(O)C[C@@H](c2nc(-c3ccc4ccc(-c5ccccc5)nc4c3)c3c(N)nccn32)C1 [Linsitinib] + CS(=O)(=O)N1CCN(Cc2cc3nc(-c4cccc5[nH]ncc45)nc(N4CCOCC4)c3s2)CC1 [Pictilisib] (partner 1 µM)
In outline:
as §1

Compound in the test “Ispinesib + Foretinib”: Cc1ccc(C(=O)N(CCCN)[C@@H](c2nc3cc(Cl)ccc3c(=O)n2Cc2ccccc2)C(C)C)cc1 [Ispinesib] + COc1cc2c(Oc3ccc(NC(=O)C4(C(=O)Nc5ccc(F)cc5)CC4)cc3F)ccnc2cc1OCCCN1CCOCC1 [Foretinib] (partner 0.25 µM)
In outline:
as §1

As for UMC-11, the relative viability in the test with Ispinesib + Phenformin (first compound 0.001 µM) was determined as 0.346; with Ispinesib + Phenformin (first compound 0.003162 µM) it was 0.327; with Ispinesib + Phenformin (first compound 0.01 µM), 0.286; with Ispinesib + Phenformin (first compound 0.03162 µM), 0.179; in the test with Ispinesib + Phenformin (first compound 0.1 µM), 0.193; in the test with Ispinesib + Dasatinib (first compound 0.001 µM) it was 0.542. The relative viability with Ispinesib + Dasatinib (first compound 0.003162 µM) turned out to be 0.544; with Ispinesib + Dasatinib (first compound 0.01 µM), 0.317; with Ispinesib + Dasatinib (first compound 0.03162 µM), 0.185; with Ispinesib + Dasatinib (first compound 0.1 µM), 0.233; in the test with Linsitinib + Pictilisib (first compound 0.01 µM) it was 0.786; with Linsitinib + Pictilisib (first compound 0.03162 µM) it was 0.735. Moreover, the relative viability is 0.834 with Linsitinib + Pictilisib (first compound 0.1 µM); 0.691 in the test with Linsitinib + Pictilisib (first compound 1 µM); 1.03 with Ispinesib + Foretinib (first compound 0.001 µM); 0.995 with Ispinesib + Foretinib (first compound 0.003162 µM); 0.889 with Ispinesib + Foretinib (first compound 0.01 µM); 0.322 in the test with Ispinesib + Foretinib (first compound 0.03162 µM). Also, the relative viability with Ispinesib + Foretinib (first compound 0.1 µM) amounted to 0.233.
